Measured values reported in ChEMBL document CHEMBL4028802, “DILIrank: the largest reference drug list ranked by the risk for developing drug-induced liver injury in humans” (Drug Discov Today, 2016).

Experiments:
Homo sapiens [1] = species on record: Homo sapiens; assay: Liver toxicity in human assessed as induction of drug-induced liver injury by measuring severity class index
Homo sapiens [2] = species on record: Homo sapiens; assay: Liver toxicity in human assessed as induction of drug-induced liver injury by measuring verified drug-induced liver injury concern status
For DILI severity class in this document: key of the grades not given here.

SMILES	DILI_severity_class (Homo sapiens [1])	DILI_Concern (Homo sapiens [2])
CCOc1nc2cccc(C(=O)O)c2n1Cc1ccc(-c2ccccc2-c2nnn[nH]2)cc1	3	Less-Dili-Concern
CCCc1nc2c(C)cc(-c3nc4ccccc4n3C)cc2n1Cc1ccc(-c2ccccc2C(=O)O)cc1	3	Less-Dili-Concern
CCCCC(=O)N(Cc1ccc(-c2ccccc2-c2nnn[nH]2)cc1)[C@H](C(=O)O)C(C)C	3	Less-Dili-Concern
CC(C)(C)NC(=O)[C@@H]1C[C@@H]2CCCC[C@@H]2CN1C[C@@H](O)[C@H](Cc1ccccc1)NC(=O)[C@H](CC(N)=O)NC(=O)c1ccc2ccccc2n1	3	Less-Dili-Concern
CCOC(=O)[C@H](CCc1ccccc1)N[C@@H](C)C(=O)N1[C@H](C(=O)O)C[C@@H]2CCC[C@@H]21	7	Less-Dili-Concern
O=C(O)[C@@H](S)[C@@H](S)C(=O)O	2	Less-Dili-Concern
CC[C@@H](C(N)=O)N1CCCC1=O	8	Less-Dili-Concern
CCOC(=O)[C@H](CCc1ccccc1)N[C@@H](C)C(=O)N1Cc2ccccc2C[C@H]1C(=O)O	3	Less-Dili-Concern
COCCCOc1cc(C[C@@H](C[C@H](N)[C@@H](O)C[C@H](C(=O)NCC(C)(C)C(N)=O)C(C)C)C(C)C)ccc1OC	0	Less-Dili-Concern
CO/N=C(\C(=O)N[C@@H]1C(=O)N2C(C(=O)[O-])=C(C[N+]3(C)CCCC3)CS[C@H]12)c1csc(N)n1	3	Less-Dili-Concern
CCCc1nn(C)c2c(=O)[nH]c(-c3cc(S(=O)(=O)N4CCN(C)CC4)ccc3OCC)nc12	3	Less-Dili-Concern
Cc1nnc(C(=O)NC(C)(C)c2nc(C(=O)NCc3ccc(F)cc3)c(O)c(=O)n2C)o1	7	Most-Dili-Concern
CC(C)C[C@H](NC(=O)[C@H](Cc1c[nH]c2ccccc12)NC(=O)[C@H](Cc1ccc(O)cc1)NC(=O)[C@H](CO)NC(=O)[C@H](Cc1c[nH]c2ccccc12)NC(=O)[C@H](Cc1c[nH]cn1)NC(=O)[C@@H]1CCC(=O)N1)C(=O)N[C@@H](CCCNC(=N)N)C(=O)N1CCC[C@H]1C(=O)NCC(N)=O.O=C(O)c1cc2ccccc2c(Cc2c(O)c(C(=O)O)cc3ccccc23)c1O	3	Less-Dili-Concern
COc1ccc2[n-]c([S@+]([O-])Cc3ncc(C)c(OC)c3C)nc2c1.[Na+]	4	Less-Dili-Concern
O=C(O)c1cc(=O)c2cc(OCC(O)COc3cccc4oc(C(=O)O)cc(=O)c34)ccc2o1 (stereo not drawn)	3	
CCOC(=O)[C@H](CCc1ccccc1)N[C@@H](C)C(=O)N1CCC[C@H]1C(=O)O	7	Less-Dili-Concern
Cc1c(O)cccc1C(=O)N[C@@H](CSc1ccccc1)[C@H](O)CN1C[C@H]2CCCC[C@H]2C[C@H]1C(=O)NC(C)(C)C	3	Less-Dili-Concern
Nc1nc(N)c2nc(-c3ccccc3)c(N)nc2n1	5	Less-Dili-Concern
COc1ccc(CCN(C)CCCC(C#N)(c2ccc(OC)c(OC)c2)C(C)C)cc1OC (stereo not drawn)		Less-Dili-Concern
N[C@@H](Cc1ccc(N(CCCl)CCCl)cc1)C(=O)O	5	Less-Dili-Concern
C=CC1=C(C(=O)O)N2C(=O)[C@@H](NC(=O)/C(=N\O)c3csc(N)n3)[C@H]2SC1	7	Less-Dili-Concern
CC(=O)Nc1ccc(O)cc1 [ACETAMINOPHEN]		Most-Dili-Concern
CN(C)CCCN1c2ccccc2CCc2ccccc21 [IMIPRAMINE]		Less-Dili-Concern
Clc1ccccc1CN1CCc2sccc2C1 [TICLOPIDINE]		Most-Dili-Concern
